From article PMC10861881 (Proceedings of the National Academy of Sciences of the …, 2024)
In brackets after ≈: the same amount, converted by molar mass.

Experiments:
[1] = Plasma protein binding, rat; assay type: in vitro ADME; conditions: Sprague-Dawley, pooled plasma
[2] = system: p-ERK (Tyr202/204) in SNU-16 cells; assay: SNU-16 cellular PD assay, p-ERK HTRF; assay type: cell-based; conditions: Homo sapiens, SNU-16, 2 h, read-out: SNU16 PD IC50
[3] = Thermodynamic solubility FaSSIF/SGF; assay type: physicochemical; conditions: thermodynamic from solid
[4] = Plasma protein binding, cynomolgus monkey; assay type: in vitro ADME; conditions: pooled plasma
[5] = PK study IV/PO, cynomolgus monkey; assay type: in vivo
PK study IV/PO, dog = assay type: in vivo
[6] = Hepatocyte intrinsic clearance, human; assay type: in vitro ADME; conditions: hepatocytes
[7] = Plasma protein binding, mouse; assay type: in vitro ADME; conditions: pooled plasma
[8] = Hepatocyte intrinsic clearance, dog; assay type: in vitro ADME; conditions: hepatocytes
MEK5 = conditions: test concentration 500 nmol/L; cited from earlier work
[9] = Hepatocyte intrinsic clearance, cynomolgus monkey; assay type: in vitro ADME; conditions: hepatocytes
[10] = Hepatocyte intrinsic clearance, rat; assay type: in vitro ADME; conditions: hepatocytes
[11] = Hepatocyte intrinsic clearance, mouse; assay type: in vitro ADME; conditions: hepatocytes
[12] = Plasma protein binding, human; assay type: in vitro ADME; conditions: pooled plasma
[13] = Stability in plasma and blood; assay type: in vitro ADME; conditions: plasma of all species, 5 μM, 37 °C, 18 h
pFGFR2 (Y653/654) = assay: Tumor PD; assay type: in vivo, mouse; conditions: SNU-16 xenograft, BALB/c nude mice, oral 5 and 10 mg/kg twice daily groups, 2 h postdose
CACO2 permeability = conditions: human, Caco-2
MKNK2 = conditions: test concentration 500 nmol/L; cited from earlier work
[14] = Plasma protein binding, dog; assay type: in vitro ADME; conditions: beagle, pooled plasma
ELogD = assay type: physicochemical; conditions: pH 7.4
PK study IV/PO, mouse = assay type: in vivo
[15] = system: FGFR2 fusion-positive cholangiocarcinoma; conditions: patients, across dose levels; cited from earlier work
PK study IV/PO, rat = assay type: in vivo

C=C(C)C(=O)Nc1ccc(-c2c(-c3ccc(Oc4nccc(C)n4)c(F)c3)c3c(N)ncnc3n2C)cc1 [Lirafugratinib]
fraction unbound at 18 h, 5 μM [1]: 0.016 | IC50 [2]: 3 nM | solubility ([3]; FaSSIF): 49.3 µM (≈ 25.1 µg/mL) | solubility ([3]; SGF, simulated gastric fluid): 540 µM (≈ 275 µg/mL) | fraction unbound at 18 h, 5 μM [4]: 0.002 | IV CLu cynomolgus monkey ([5]; IV, unbound): 1,100 mL/min/kg | Vd ([5]; plasma, iv): 0.26 L/kg | clearance ([5]; plasma, iv): 2.2 mL/min/kg | half-life ([5]; plasma, iv): 84 min | bioavailability ([5]; plasma, po): 47% | IV CLu dog (PK study IV/PO, dog; IV, unbound): 1,200 mL/min/kg | Vd (PK study IV/PO, dog; beagle, plasma, iv): 1.3 L/kg | clearance (PK study IV/PO, dog; beagle, plasma, iv): 28 mL/min/kg | half-life (PK study IV/PO, dog; beagle, plasma, iv): 33 min | bioavailability (PK study IV/PO, dog; beagle, plasma, po): 53% | hepatocyte CLint [6]: < 1 µL/min/1e6 cells | fraction unbound at 18 h, 5 μM [7]: 0.0082 | hepatocyte CLint [8]: 19 µL/min/1e6 cells | inhibition of MEK5 in kinome panel (MEK5): 92.4% | hepatocyte CLint [9]: 6.5 µL/min/1e6 cells | hepatocyte CLint [10]: 30 µL/min/1e6 cells | hepatocyte CLint [11]: 29 µL/min/1e6 cells | fraction unbound at 18 h, 5 μM [12]: 0.0014 | stability in plasma under PPB assay conditions [13]: stable | modulation of phosphorylated FGFR2 (pFGFR2) in tumor (pFGFR2 (Y653/654)): complete suppression | Papp A→B (CACO2 permeability): 5.3 ×10⁻⁶ cm/s | Papp B→A (CACO2 permeability): 6.8 ×10⁻⁶ cm/s | inhibition of MKNK2 in kinome panel (MKNK2): 89% | fraction unbound at 18 h, 5 μM [14]: 0.023 | ELogD@7.4 (ELogD): 4.3/510 | Vd (PK study IV/PO, mouse; BALB/c nude, plasma, iv): 0.42 L/kg | clearance (PK study IV/PO, mouse; BALB/c nude, plasma, iv): 4.4 mL/min/kg | half-life (PK study IV/PO, mouse; BALB/c nude, plasma, iv): 66 min | bioavailability (PK study IV/PO, mouse; BALB/c nude, plasma, po): 58% | IV CLu mouse (PK study IV/PO, mouse; IV, unbound): 538 mL/min/kg | adverse effects occurring with treatment [15]: minimal hyperphosphatemia and diarrhea | IV CLu rat (PK study IV/PO, rat; IV, unbound): 3,813 mL/min/kg | Vd (PK study IV/PO, rat; Sprague-Dawley, in vivo, iv): 0.98 L/kg | half-life (PK study IV/PO, rat; Sprague-Dawley, in vivo, iv): 11.4 min | bioavailability (PK study IV/PO, rat; Sprague-Dawley, in vivo, po): 18%
